In patent publication US10071981B2, “Method of priming plants against abiotic stress factors” (Research Foundation of The City University of New York, priority 2014, dated 2018) one finds proline content data, which are given here for one molecule.

The test system of the experiment is Medicago truncatula plants. Briefly: Proline content (ninhydrin assay) in leaves of drought-stressed plants. The format is in vivo. Conditions: 100 μM, 30% (v/v) MetOH; vs drought-stressed alone samples; FIG. 6. The method, then:
Mature (40 d) Medicago truncatula ecotype Jemalong A17 plants were used for the purposes of this study. These were grown in soil medium under controlled, optimal growth conditions and were then subjected to drought stress. Drought was imposed by withholding watering for 9 d (for detailed growth and stress conditions see Filippou et al., 2011). Both NOSH and NOSH-aspirin were applied at 100 μM concentration by foliar spraying at the start of stress imposition. The hybrid donors were diluted in 70% (v/v) and 30% (v/v) methanol, 20% (v/v) acetone or 20% (v/v) DMSO. Cellular damage was evaluated by lipid peroxidation levels (TBARS content) and hydrogen peroxide (H2O2) content as previously described (Filippou et al., 2011; Tanou et al., 2012), while osmoprotective capacity was evaluated by proline content (ninhydrin assay) as previously described (Antoniou et al., 2013). […] Relative quantification of gene expression and statistical analysis of all qRT-PCR data (pairwise fixed reallocation randomization test) were performed using the REST software according to Pfaffl et al. (2002). […] In addition, proline content was evaluated as proline is a major osmoprotective molecule involved in the defense response of plants to abiotic stress conditions (Filippou et al., 2013b).

On to `O=C(CCCO[N+](=O)[O-])Oc1ccccc1C(=O)Oc1ccc(-c2cc(=S)ss2)cc1` [NOSH-A], for which the proline content result is “increased proline content”.
